Measured values from patent US6770597B2, “Benzohydrazide derivatives as herbicides and desiccant compositions containing them” (Ishihara Sangyo Kaisha, Ltd., priority 2002, dated 2004).

Legend:
Type in all cases: in vivo
[1] = test system: velvetleaf (Abutilon theophrasti, ABUTH); assay: Greenhouse herbicide screen, post-emerge application, phytotoxicity rating; conditions: POST emergent, 14 days after application, scale 0-100
Description: (§1) A standard greenhouse herbicide activity screening system was used to evaluate the herbicidal efficacy and crop safety of these test compounds. Seven broadleaf weed species including redroot pigweed (Amaranthus retrofiexus, AMARE), velvetleaf (Abutilon theophrasti, ABUTH), sicklepod (Cassia obtusifolia, CASOB), ivyleaf morningglory (Ipomoea hederacea, IPOHE), lambsquarters (Chenopodium album, CHEAL), common ragweed (Ambrosia artemisiifolia L., AMBEL), and cocklebur (Xanthium strumarium, XANST) were used as test species. Four grass weed species including green foxtail (Setaria viridis, SETVI), barnyardgrass (Echinochloa crus-galli, ECHCG), johnsongrass (Sorghum halepense, SORHA), and large crabgrass (Digitaria sanguinalis, DIGSA) were also used. In addition, four crop species, field corn (Zea mays L., var. Dekalb 535, CORN), soybean (Glycine max L., var. Pella 86, SOY), upland rice (Oryza sp., var.Cocodrie, RICE) and wheat (Triticum aestivum L.) were included.
(§2) All plants were grown in 10 cm square plastic pots which were filled with a sandy loam soil mix. For pre-emerge tests, seeds were planted one day prior to application of the test compounds. For post-emerge tests, seeds were planted 8-21 days prior to the test to allow emergence and good foliage development prior to application of the test substances. At the time of the post-emerge application, plants of all species were usually at the 2-3 leaf stage of development.
(§3) All test compounds were dissolved in acetone and applied to the test units in a volume of 187 l/ha. Test materials were applied at rates ranging from 15 g ai/ha to 1000 g ai/ha using a track sprayer equipped with a TJ8001E even flow flat fan spray nozzle. Plants were arranged on a shelf so that the top of the canopy (post-emerge) or top of the soil surface (pre-emerge) was 40-45 cm below the nozzle. Pressurized air was used to force the test solution through the nozzle as it was mechanically advanced (via electrically driven chain drive) over the top of all test plants/pots. This application simulates a typical commercial field herbicide application.
(§4) Pre-emergence tests were top watered immediately after treatment to incorporate the test materials, then routinely top-watered for normal growth. Post-emerge test units were always bottom-watered.
(§5) At 14 days after application of the test materials, phytotoxicity ratings were recorded. A rating scale of 0-100 was used as previously described in Research Methods in Weed Science, 2nd edition, B. Truelove, Ed., Southern Weed Science Society, Auburn University, Auburn, Ala., 1977. Briefly, “0” corresponds to no damage and “100” corresponds to complete death of all plants in the test unit. This scale was used both to determine efficacy against weed species and damage to crop species. Herbicide activity data for various compounds of this invention, which are shown by compound No. in Tables 1-12, are shown in Tables 13 and 14.

[2] = test system: common ragweed (Ambrosia artemisiifolia L., AMBEL); assay: as above; conditions: POST emergent, 14 days after application, scale 0-100
Description: as §1, §2, §3, §4, §5

[3] = test system: redroot pigweed (Amaranthus retrofiexus, AMARE); assay: as above; conditions: POST emergent, 14 days after application
Description: as §1, §2, §3, §4, §5

[4] = test system: green foxtail (Setaria viridis, SETVI); assay: as above; conditions: POST emergent, 14 days after application, scale 0-100
Description: as §1, §2, §3, §4, §5

[5] = test system: lambsquarters (Chenopodium album, CHEAL); assay: as above; conditions: POST emergent, 14 days after application, scale 0-100
Description: as §1, §2, §3, §4, §5

[6] = test system: sicklepod (Cassia obtusifolia, CASOB); assay: as above; conditions: POST emergent, 14 days after application, scale 0-100
Description: as §1, §2, §3, §4, §5

[7] = test system: barnyardgrass (Echinochloa crus-galli, ECHCG); assay: as above; conditions: POST emergent, 14 days after application, scale 0-100
Description: as §1, §2, §3, §4, §5

[8] = test system: large crabgrass (Digitaria sanguinalis, DIGSA); assay: as above; conditions: POST emergent, 14 days after application, scale 0-100
Description: as §1, §2, §3, §4, §5

[9] = test system: ivyleaf morningglory (Ipomoea hederacea, IPOHE); assay: as above; conditions: POST emergent, 14 days after application, scale 0-100
Description: as §1, §2, §3, §4, §5

[10] = test system: cocklebur (Xanthium strumarium, XANST); assay: as above; conditions: POST emergent, 14 days after application, scale 0-100
Description: as §1, §2, §3, §4, §5

[11] = test system: johnsongrass (Sorghum halepense, SORHA); assay: as above; conditions: POST emergent, 14 days after application, scale 0-100
Description: as §1, §2, §3, §4, §5

[12] = test system: velvetleaf (Abutilon theophrasti, ABUTH); assay: Greenhouse herbicide screen, pre-emerge application, phytotoxicity rating; conditions: PRE emergent, 14 days after application, rating scale 0-100
Description: as §1, §2, §3, §4, §5

[13] = test system: common ragweed (Ambrosia artemisiifolia L., AMBEL); assay: as above; conditions: PRE emergent, 14 days after application, rating scale 0-100
Description: as §1, §2, §3, §4, §5

[14] = test system: redroot pigweed (Amaranthus retrofiexus, AMARE); assay: as above; conditions: PRE emergent, 14 days after application, rating scale 0-100
Description: as §1, §2, §3, §4, §5

[15] = test system: green foxtail (Setaria viridis, SETVI); assay: as above; conditions: PRE emergent, 14 days after application, rating scale 0-100
Description: as §1, §2, §3, §4, §5

[16] = test system: lambsquarters (Chenopodium album, CHEAL); assay: as above; conditions: PRE emergent, 14 days after application, rating scale 0-100
Description: as §1, §2, §3, §4, §5

[17] = test system: sicklepod (Cassia obtusifolia, CASOB); assay: as above; conditions: PRE emergent, 14 days after application, rating scale 0-100
Description: as §1, §2, §3, §4, §5

[18] = test system: barnyardgrass (Echinochloa crus-galli, ECHCG); assay: as above; conditions: PRE emergent, 14 days after application, rating scale 0-100
Description: as §1, §2, §3, §4, §5

[19] = test system: large crabgrass (Digitaria sanguinalis, DIGSA); assay: as above; conditions: PRE emergent, 14 days after application, rating scale 0-100
Description: as §1, §2, §3, §4, §5

[20] = test system: ivyleaf morningglory (Ipomoea hederacea, IPOHE); assay: as above; conditions: PRE emergent, 14 days after application, rating scale 0-100
Description: as §1, §2, §3, §4, §5

[21] = test system: cocklebur (Xanthium strumarium, XANST); assay: as above; conditions: PRE emergent, 14 days after application, rating scale 0-100
Description: as §1, §2, §3, §4, §5

[22] = test system: johnsongrass (Sorghum halepense, SORHA); assay: as above; conditions: PRE emergent, 14 days after application, rating scale 0-100
Description: as §1, §2, §3, §4, §5

Cn1c(C(F)(F)F)cc(=O)n(-c2cc(C(=O)NN=C(C(C)(C)C)C(C)(C)C)c(Cl)cc2F)c1=O [Compound 6-4, 2-chloro-5-(3,6-dihydro-3-methyl-2,6-dioxo-4-(trifluoromethyl)-1(2H)-pyrimidinyl)-4-fluoro-benzoic acid, 2-[1-(1,1-dimethylethyl)-2,2-dimethylpropylidene]hydrazide]
99: phytotoxicity rating CASOB ([6]; 63 g ai/ha) | phytotoxicity rating SORHA ([22]; 63 g ai/ha)
80: phytotoxicity rating ECHCO ([7]; 63 g ai/ha)
95: phytotoxicity rating CASOB ([6]; 250 g ai/ha)
50: phytotoxicity rating DIGSA ([8]; 63 g ai/ha)
100: phytotoxicity rating ABUTH ([1]; 63 g ai/ha) | phytotoxicity rating ABUTH ([1]; 250 g ai/ha) | phytotoxicity rating AMBEL ([2]; 250 g ai/ha) | phytotoxicity rating AMARE ([3]; 63 g ai/ha, scale 0-100 (0 no damage, 100 complete death)) | phytotoxicity rating AMARE ([3]; 250 g ai/ha, scale 0-100) | phytotoxicity rating SETVI ([4]; 250 g ai/ha) | phytotoxicity rating CHEAL ([5]; 63 g ai/ha) | phytotoxicity rating CHEAL ([5]; 250 g ai/ha) | phytotoxicity rating ECHCO ([7]; 250 g ai/ha) | phytotoxicity rating IPOHE ([9]; 63 g ai/ha) | phytotoxicity rating IPOHE ([9]; 250 g ai/ha) | phytotoxicity rating XANST ([10]; 63 g ai/ha) | phytotoxicity rating XANST ([10]; 250 g ai/ha) | phytotoxicity rating SORHA ([11]; 250 g ai/ha) | phytotoxicity rating ABUTH ([12]; 63 g ai/ha) | phytotoxicity rating ABUTH ([12]; 250 g ai/ha) | phytotoxicity rating AMBEL ([13]; 63 g ai/ha) | phytotoxicity rating AMBEL ([13]; 250 g ai/ha) | phytotoxicity rating AMARE ([14]; 63 g ai/ha) | phytotoxicity rating AMARE ([14]; 250 g ai/ha) | phytotoxicity rating SETVI ([15]; 63 g ai/ha) | phytotoxicity rating SETVI ([15]; 250 g ai/ha) | phytotoxicity rating CHEAL ([16]; 63 g ai/ha) | phytotoxicity rating CHEAL ([16]; 250 g ai/ha) | phytotoxicity rating CASOB ([17]; 250 g ai/ha) | phytotoxicity rating ECHCG ([18]; 250 g ai/ha) | phytotoxicity rating DIGSA ([19]; 63 g ai/ha) | phytotoxicity rating DIGSA ([19]; 250 g ai/ha) | phytotoxicity rating IPOHE ([20]; 63 g ai/ha) | phytotoxicity rating IPOHE ([20]; 250 g ai/ha) | phytotoxicity rating XANST ([21]; 250 g ai/ha) | phytotoxicity rating SORHA ([22]; 250 g ai/ha)
75: phytotoxicity rating AMBEL ([2]; 63 g ai/ha) | phytotoxicity rating SORHA ([11]; 63 g ai/ha)
85: phytotoxicity rating SETVI ([4]; 63 g ai/ha)
70: phytotoxicity rating DIGSA ([8]; 250 g ai/ha)
98: phytotoxicity rating CASOB ([17]; 63 g ai/ha) | phytotoxicity rating ECHCG ([18]; 63 g ai/ha) | phytotoxicity rating XANST ([21]; 63 g ai/ha)
